The results in this text go back to ChEMBL document CHEMBL3880396, “Calcium channel inhibitors comprising benzhydril spaced from piperazine” (2004).

SMILES strings stand for the structures. Bounds are passed on as bounds.

A short description of assay [1]: Selectivity ratio of IC50 for alpha1A/alpha2delta/beta1b P/Q-type calcium channel (unknown origin) to IC50 for rat brain […] N-type calcium channel.
Assay [2] can be described thus: Selectivity ratio of IC50 for alpha1C/alpha2delta/beta1b L-type calcium channel (unknown origin) to IC50 for rat brain […] N-type calcium channel.

With `CC(C)(C)c1cc(C(c2ccccc2)N2CCN(C(=O)CC(c3ccccc3)c3ccccc3)CC2)cc(C(C)(C)C)c1O` (configuration not stated), the Ratio IC50 in assay [1] and in assay [2] was > 40 in each case.

Regarding `CCOC(=O)C1CN(C(c2ccccc2)c2ccccc2)CCN1C(=O)CC(c1ccccc1)c1ccccc1` (configuration not stated), the Ratio IC50 was determined as 69 in assay [1] and 2880 in assay [2].

For the compound `O=C(O)C1CN(C(c2ccccc2)c2ccccc2)CCN1C(=O)CC(c1ccccc1)c1ccccc1` (configuration not stated), the Ratio IC50 in assay [1] stood at 9.4; in assay [2] it was 103.

In the case of `COc1ccc(C(c2ccc(C(F)(F)F)cc2)N2CCN(C(=O)CC(c3ccccc3)c3ccccc3)CC2)cc1` (configuration not stated), the figures for the Ratio IC50 in assay [1] and in assay [2] were 41 and > 54, respectively.

In the case of `O=C(CC(c1ccccc1)c1ccccc1)N1CCN(C(c2ccccc2)c2ccc(C(F)(F)F)cc2)CC1` (configuration not stated), the Ratio IC50 in assay [1] came out at 5.1; in assay [2], 103.

Turning to `O=C(CC(c1ccccc1)c1ccccc1)N1CCN(C(c2ccccc2)c2ccc(Cl)cc2)CC1` (configuration not stated), the values for the Ratio IC50 in assay [1] and in assay [2] were 28 and 831, respectively.
